According to patent publication US4228292A, “N-Substituted benzothiazolines and benzoxazolines and their use as herbicides and plant growth regulants” (Monsanto Company, priority 1978, dated 1980):

Columns and labels:
Assay type in all cases: in vivo
Hemp Sesbania [1] = experiment: post-emergent herbicidal test; settings: R, 4 WAT
Experimental: (§1) The post-emergent tests were conducted as follows:
(§2) The herbicidal active ingredients are applied in spray form to two or three-week old specimens of various plant species. The spray, a solution or wettable powder suspension containing the appropriate rate of herbicidal active ingredient to give the desired test rate and a surfactant, is applied to the plants. The treated plants are placed in a greenhouse and approximately two or four weeks later the effects are observed and recorded. The results are shown in Tables IX and X in which the post-emergent herbicidal rating code is as follows: […]

Sorghum [2] = experiment: post-emergent herbicidal test; settings: P, 4 WAT
Experimental: as §1, §2

Soybean [3] = experiment: post-emergent herbicidal test; settings: L, 4 WAT
Experimental: as §1, §2

Wild Buckwheat [4] = experiment: post-emergent herbicidal test; settings: Q, 4 WAT
Experimental: as §1, §2

Crabgrass [5] = experiment: post-emergent herbicidal test; settings: T, 4 WAT
Experimental: as §1, §2

Panicum Spp [6] = experiment: post-emergent herbicidal test; settings: S, 4 WAT
Experimental: as §1, §2

Rice [7] = experiment: post-emergent herbicidal test; settings: O, 4 WAT
Experimental: as §1, §2

Sugar Beet [8] = experiment: post-emergent herbicidal test; settings: M, 4 WAT
Experimental: as §1, §2

Wheat [9] = experiment: post-emergent herbicidal test; settings: N, 4 WAT
Experimental: as §1, §2

Hemp Sesbania [10] = experiment: pre-emergent herbicidal test; settings: R
Experimental: (§3) The pre-emergent test was conducted as follows:
(§4) A good grade of top soil was placed in aluminum pans and compactd to a depth of 0.95 to 1.27 cm. from the top of the pan. On the top of the soil was placed a predetermined number of seeds or vegetative propagules of various plant species. The soil required to level fill the pans after seeding or adding vegetative propagules was weighed into a pan. A known amount of the herbicidal active ingredient applied in a solvent or as a wettable powder and the soil were thoroughly mixed, and used as a cover layer for prepared pans. After treatment the pans were moved into a greenhouse bench where they were watered from below as needed to give adequate moisture for germination and growth.
(§5) A herbicidal rating code was used to signify the extent of phytotoxicity of each species. The ratings are defined as follows: […]

Sorghum [11] = experiment: pre-emergent herbicidal test; settings: P
Experimental: as §3, §4, §5

Soybean [12] = experiment: pre-emergent herbicidal test; settings: L
Experimental: as §3, §4, §5

Wild Buckwheat [13] = experiment: pre-emergent herbicidal test; settings: Q
Experimental: as §3, §4, §5

Crabgrass [14] = experiment: pre-emergent herbicidal test; settings: T
Experimental: as §3, §4, §5

Panicum Spp [15] = experiment: pre-emergent herbicidal test; settings: S
Experimental: as §3, §4, §5

Rice [16] = experiment: pre-emergent herbicidal test; settings: O
Experimental: as §3, §4, §5

Sugar Beet [17] = experiment: pre-emergent herbicidal test; settings: M
Experimental: as §3, §4, §5

Wheat [18] = experiment: pre-emergent herbicidal test; settings: N
Experimental: as §3, §4, §5
Note: ranges in brackets are in %.

COC(=N)Cn1c(=O)sc2ccccc21 [Compound 37]
0 (0-24): post-emergent herbicidal rating (Sorghum [2]; 1.12 kg/h) | post-emergent herbicidal rating (Sorghum [2]; 5.6 kg/h) | post-emergent herbicidal rating (Crabgrass [5]; 1.12 kg/h) | post-emergent herbicidal rating (Panicum Spp [6]; 1.12 kg/h) | post-emergent herbicidal rating (Panicum Spp [6]; 5.6 kg/h) | post-emergent herbicidal rating (Rice [7]; 1.12 kg/h) | post-emergent herbicidal rating (Rice [7]; 5.6 kg/h) | post-emergent herbicidal rating (Wheat [9]; 1.12 kg/h) | post-emergent herbicidal rating (Wheat [9]; 5.6 kg/h)
3 (75-99): post-emergent herbicidal rating (Hemp Sesbania [1]; 5.6 kg/h)
2 (50-74): post-emergent herbicidal rating (Hemp Sesbania [1]; 1.12 kg/h) | post-emergent herbicidal rating (Soybean [3]; 5.6 kg/h) | post-emergent herbicidal rating (Wild Buckwheat [4]; 1.12 kg/h) | post-emergent herbicidal rating (Sugar Beet [8]; 1.12 kg/h) | post-emergent herbicidal rating (Sugar Beet [8]; 5.6 kg/h)
4 (100): post-emergent herbicidal rating (Wild Buckwheat [4]; 5.6 kg/h)
1 (25-49): post-emergent herbicidal rating (Soybean [3]; 1.12 kg/h) | post-emergent herbicidal rating (Crabgrass [5]; 5.6 kg/h)

CCOC(=N)Cn1c(=O)sc2ccccc21 [Compound 25]
0 (0-24): pre-emergent herbicidal rating (Hemp Sesbania [10]; 0.056 kg/h, 2 WAT) | pre-emergent herbicidal rating (Hemp Sesbania [10]; 0.28 kg/h, 2 WAT) | pre-emergent herbicidal rating (Sorghum [11]; 0.056 kg/h, 2 WAT) | pre-emergent herbicidal rating (Sorghum [11]; 0.28 kg/h, 2 WAT) | pre-emergent herbicidal rating (Sorghum [11]; 1.12 kg/h, 4 WAT) | pre-emergent herbicidal rating (Sorghum [11]; 5.6 kg/h, 4 WAT) | pre-emergent herbicidal rating (Soybean [12]; 0.056 kg/h, 2 WAT) | pre-emergent herbicidal rating (Wild Buckwheat [13]; 0.056 kg/h, 2 WAT) | pre-emergent herbicidal rating (Wild Buckwheat [13]; 0.28 kg/h, 2 WAT) | pre-emergent herbicidal rating (Crabgrass [14]; 0.056 kg/h, 2 WAT) | pre-emergent herbicidal rating (Crabgrass [14]; 0.28 kg/h, 2 WAT) | pre-emergent herbicidal rating (Crabgrass [14]; 1.12 kg/h, 4 WAT) | pre-emergent herbicidal rating (Panicum Spp [15]; 0.056 kg/h, 2 WAT) | pre-emergent herbicidal rating (Panicum Spp [15]; 0.28 kg/h, 2 WAT) | pre-emergent herbicidal rating (Panicum Spp [15]; 1.12 kg/h, 4 WAT) | pre-emergent herbicidal rating (Panicum Spp [15]; 5.6 kg/h, 4 WAT) | pre-emergent herbicidal rating (Rice [16]; 0.056 kg/h, 2 WAT) | pre-emergent herbicidal rating (Rice [16]; 0.28 kg/h, 2 WAT) | pre-emergent herbicidal rating (Rice [16]; 1.12 kg/h, 4 WAT) | pre-emergent herbicidal rating (Sugar Beet [17]; 0.056 kg/h, 2 WAT) | pre-emergent herbicidal rating (Wheat [18]; 0.056 kg/h, 2 WAT) | pre-emergent herbicidal rating (Wheat [18]; 0.28 kg/h, 2 WAT) | pre-emergent herbicidal rating (Wheat [18]; 1.12 kg/h, 4 WAT)
3 (75-100): pre-emergent herbicidal rating (Hemp Sesbania [10]; 5.6 kg/h, 4 WAT) | pre-emergent herbicidal rating (Soybean [12]; 5.6 kg/h, 4 WAT) | pre-emergent herbicidal rating (Sugar Beet [17]; 5.6 kg/h, 4 WAT)
2 (50-74): pre-emergent herbicidal rating (Hemp Sesbania [10]; 1.12 kg/h, 4 WAT) | pre-emergent herbicidal rating (Soybean [12]; 1.12 kg/h, 4 WAT) | pre-emergent herbicidal rating (Wild Buckwheat [13]; 5.6 kg/h, 4 WAT) | pre-emergent herbicidal rating (Crabgrass [14]; 5.6 kg/h, 4 WAT)
1 (25-49): pre-emergent herbicidal rating (Soybean [12]; 0.28 kg/h, 2 WAT) | pre-emergent herbicidal rating (Wild Buckwheat [13]; 1.12 kg/h, 4 WAT) | pre-emergent herbicidal rating (Rice [16]; 5.6 kg/h, 4 WAT) | pre-emergent herbicidal rating (Sugar Beet [17]; 0.28 kg/h, 2 WAT) | pre-emergent herbicidal rating (Sugar Beet [17]; 1.12 kg/h, 4 WAT) | pre-emergent herbicidal rating (Wheat [18]; 5.6 kg/h, 4 WAT)
